# Results taken from patent US20050182252A1, “Novel 2'-C-methyl nucleoside derivatives” (priority 2004, published 2005).
# “Also recorded” adds a separate entry of the source. Counter-ions that a name gives are not always drawn.
# Tests used:
# HCV = test: HCV-infected human liver slice assay (HCV RNA in culture medium); assay type: cell-based; settings: for Log10 decrease in viral RNA from control at 48-72 h: HCV RNA in culture medium of HCV-infected human liver slices; for HCV RNA levels in the liver slice culture media versus control, untreated slices: in words, treatment for 72 h
# Method: Inhibition of HCV replication in human liver tissue was evaluated using the following assay.
# Liver from a brain-dead HCV antibody-positive human patient was perfused with ice-cold Viaspan (Dupont Pharmaceutical) preservation solution and received on ice in Viaspan.
# Precision-cut liver slices of ˜200-250 μm thickness and […] diameter were prepared and cultured in Waymouth's cell culture medium (Gibco, Inc.) that was supplemented with 10% fetal bovine serum and 10 mL/L Fungi-Bact at 37° C., and gassed with carbogen (95% O2, 5% CO2) at 0.75 liters/min. Tissue slices were maintained in culture for 72 h. Cell culture medium containing test compound in solution was changed on a daily basis.
# At appropriate times of liver slice incubation, liver slices and medium were collected for analysis of HCV RNA (tissue and medium) and nucleotide levels (NTP). All collected media and tissue slices were maintained in liquid N2 until analysis.
# Medium and tissue samples were analyzed for HCV RNA levels according to published procedures (Bonacini et. al., 1999) which utilize an automated, multicycle, polymerase chain reaction (PCR)-based technique. This assay has a lower limit of detection for HCV RNA of 100 viral copies/ml.
# [1] = set-up: species or system C57BL/6 mice; settings: in vivo; for Liver NTP AUC: mouse
# Method: The liver specificity of the compound 19 prodrug was compared relative to the parent nucleoside, 2′-C-methylguanosine, and for compound 21.1 prodrug relative to its parent nucleoside, 2′-C-methyladenosine, by measuring the generation of NTP in the liver compared to nucleoside in the plasma.
# Compound 19 or 2′-C-methylguanosine were administered intraperitoneally to C57BL/6 mice at a dose of 30 mg/kg based on nucleoside equivalents (30 mg/kg 2′-C-methylguanosine and 53.27 mg/kg compound 19). Compound 21.1 or 2′-C-methyladenosine were administered intravenously to C57BL/6 mice at dose of about 5.5 mg/kg nucleoside equivalents (5.5 mg/kg 2′-C-methyladenosine and 10 mg/kg compound 21.1). Plasma concentrations of 2′-C-methylguanosine, compound 19, 2′-C-methyladenosine, and compound 21.1 were determined by HPLC-UV and the liver concentrations of the 5′-triphosphate of 2′-C-methylguanosine and 2′-C-methyladenosine were measured by LC-MS using the standard ion-pairing chromatography method for triphosphate as described in Example E. Conventional SAX HPLC-UV could not differentiate between endogenous GTP and 2′-C-methylguanosine triphosphate. Since an authentic standard of 2′-C-methylguanosine triphosphate was not available, the liver concentrations of the nucleotide were approximated as described in Example E.
Structure (SMILES),melting point,further results
"C[C@@]1(O)[C@H](O)[C@@H](CO[P@]2(=O)OCC[C@H](c3cccc(Cl)c3)O2)O[C@H]1n1cnc2c(=O)[nH]c(N)nc21 (relative stereo) [Compound 19, cis-5′-O-[4-(3-Chlorophenyl)-2-oxo-1,3,2-dioxaphosphorinan-2-yl]-2′-C-methyl-guanosine]",–,"Log10 decrease in viral RNA from control at 48-72 h (HCV; 0.25 μM compound): 1.27 Log10; Log10 decrease in viral RNA from control at 48-72 h (HCV; 1 μM compound): 1.61 Log10; Log10 decrease in viral RNA from control at 48-72 h (HCV; 2.5 μM compound): 1.70 Log10; Log10 decrease in viral RNA from control at 48-72 h (HCV; 25 μM compound): 1.72 Log10; HCV RNA levels in the liver slice culture media versus control, untreated slices (HCV): decreased; also recorded: more effective than treatment with the nucleoside; Liver Targeting Index (Liver/Plasma) ([1]; C57BL/6, mouse, ip, 30 mg/kg): 26.2; Prodrug Improvement (Fold) ([1]; C57BL/6, mouse, ip, 30 mg/kg): 30 Fold"
"C[C@@]1(O)[C@H](O)[C@@H](CO)O[C@H]1n1cnc2c(N)ncnc21 [2′-C-methyladenosine, reference compound]",–,"Plasma Nucleoside AUC ([1]; C57BL/6, mouse, iv, 5.5 mg/kg): 26.8 µM·h; Liver NTP AUC ([1]; iv, 5.5 mg/kg): 119 nmol·h/g"
"C[C@@]1(O)[C@H](O)[C@@H](CO)O[C@H]1n1cnc2c(=O)[nH]c(N)nc21 [2′-C-methylguanosine, reference compound]",–,"Log10 decrease in viral RNA from control at 48-72 h (HCV; 0.25 μM compound): 0.51 Log10; Log10 decrease in viral RNA from control at 48-72 h (HCV; 2.5 μM compound): 1.74 Log10; Log10 decrease in viral RNA from control at 48-72 h (HCV; 25 μM compound): 1.48 Log10; HCV RNA levels in the liver slice culture media versus control, untreated slices (HCV): decreased; Liver Targeting Index (Liver/Plasma) ([1]; C57BL/6, mouse, ip, 30 mg/kg): 0.87"
CO[C@@H]1COP(=O)(OC[C@H]2O[C@@H](n3ccc4c(=O)[nH]c(N)nc43)[C@](C)(O)[C@@H]2O)O[C@@H]1c1cccc(Cl)c1 (stereo partly drawn) [Compound 17.19],148 to 151 °C,–
"C[C@@]1(O)[C@H](O)[C@@H](COP2(=O)OCC[C@H](c3ccccc3Br)O2)O[C@H]1n1ccc2c(=O)[nH]c(N)nc21 (stereo partly drawn) [Compound 17.21, 2-amino-7-(cis-5′-O-[4-(2-bromophenyl)-2-oxo-1,3,2-dioxaphosphorinan-2-yl]-2′-C methyl-beta-D-ribofuranosyl)-7H-pyrrolo[2,3-d]pyrimidin-4(3H)-one]",180 °C,–
C[C@@]1(O)[C@H](O)[C@@H](COP2(=O)OCC[C@H](c3cc(C(F)(F)F)cc(C(F)(F)F)c3)O2)O[C@H]1n1ccc2c(=O)[nH]c(N)nc21 (stereo partly drawn) [Compound 17.23],155 to 175 °C,–
"C[C@@]1(O)[C@H](O)[C@@H](COP2(=O)OCC[C@H](c3ccc(Cl)cc3Cl)O2)O[C@H]1n1ccc2c(=O)[nH]c(N)nc21 (stereo partly drawn) [Compound 17.25, 2-amino-7-(cis-5-O-[4-(2,4-dichlorophenyl)-2-oxo-1,3,2-dioxaphosphorinan-2-yl]-2-C methyl-beta-D-ribofuranosyl)-7H-pyrrolo[2,3-d]pyrimidin-4(3H)-one]",175 °C,–
"C[C@@]1(O)[C@H](O)[C@@H](COP2(=O)OCC[C@@H](c3cccc(Cl)c3)O2)O[C@H]1n1cnc2c(N)ncnc21 (stereo partly drawn) [Compound 21.1, cis-5′-O-[4-(S)-(3-chlorophenyl)-2-oxo-1,3,2-dioxaphosphorinan-2-yl]-2′-C-beta-methyl-adenosine trifluoroacetic acid salt]",–,"Liver NTP AUC ([1]; iv, 5.5 mg/kg): 502 nmol·h/g"
"CC(=O)O[C@@H]1[C@@H](COP2(=O)OCC[C@H](c3ccncc3)O2)O[C@@H](n2ccc3c(N)ncnc32)[C@]1(C)O (stereo partly drawn) [Compound 22.1, 4-amino-7-(3′-acetyl-cis-5′-O-[4-(S)-(pyridin-4-yl)-2-oxo-1,3,2-dioxaphosphorinan-2-yl]-2′-C-methyl-beta-D-ribofuranosyl)-7H-pyrrolo[2,3-d]pyrimidine]",182 to 185 °C,–
"C[C@@]12OC(=O)O[C@@H]1[C@@H](COP1(=O)OCC[C@H](c3ccncc3)O1)O[C@H]2n1ccc2c(N)ncnc21 (stereo partly drawn) [Compound 23.2, 4-amino-7-(2′,3′-carbonyl-cis-5′-O-[4-(S)-(pyridin-4-yl)-2-oxo-1,3,2-dioxaphosphorinan-2-yl]-2′-C-methyl-beta-D-ribofuranosyl)-7H-pyrrolo[2,3-d]pyrimidine]",192 to 195 °C,–
"C[C@@]1(O)[C@H](O)[C@@H](CO)O[C@H]1n1ccc2c(N=[N+]=[N-])ncnc21 [Compound 25.1, 4-azido-7-(2′-C-methyl-beta-D-ribofuranosyl)-7H-pyrrolo[2,3-d]pyrimidine]",179 to 180 °C,–

# More lines, main results first:
melting point,Structure (SMILES),further results
175 to 179 °C,"C[C@@]1(O)[C@H](O)[C@@H](COP2(=O)OCC[C@@H](c3ccc(F)c(Br)c3)O2)O[C@H]1n1ccc2c(=O)[nH]c(N)nc21 (stereo partly drawn) [Compound 17.15, 2-amino-7-(cis-5′-O-[4-(3-bromo-4-fluoro-phenyl)-2-oxo-1,3,2-dioxaphosphorinan-2-yl]-2′-C methyl-beta-D-ribofuranosyl)-7H-pyrrolo[2,3-d]pyrimidin-4(3H)-one]",–
128 to 133 °C,"C[C@@]1(O)[C@H](O)[C@@H](CO[P@]2(=O)OCC[C@H](c3ccccc3)O2)O[C@H]1n1ccc2c(=O)[nH]c(N)nc21 [Compound 17.16, 2-amino-7-(cis-5-O-[4-(R)-phenyl-2-oxo-1,3,2-dioxaphosphorinan-2-yl]-2-C methyl-beta-D-ribofuranosyl)-7H-pyrrolo[2,3-d]pyrimidin-4(3H)-one]",–
145 to 165 °C,C[C@@]1(O)[C@H](O)[C@@H](COP2(=O)OCC[C@H](c3cccc(C(F)(F)F)c3)O2)O[C@H]1n1ccc2c(=O)[nH]c(N)nc21 (stereo partly drawn) [Compound 17.24],–
153 °C,"C[C@@]1(O)[C@H](O)[C@@H](COP2(=O)OCCC(c3cccc(Cl)c3)O2)O[C@H]1n1cnc2c(N)ncnc21 (stereo partly drawn) [Compound 18, 5′-O-[4-(3-chlorophenyl)-2-oxo-1,3,2-dioxaphosphorinan-2-yl]-2′-C-methyladenosine]",–
153 to 156 °C,"C[C@@]1(O)[C@H](O)[C@@H](COP2(=O)OCC[C@@H](c3cccc(C#N)c3)O2)O[C@H]1n1cnc2c(N)ncnc21 (stereo partly drawn) [Compound 21.2, cis-5′-O-[4-(3-cyanophenyl)-2-oxo-1,3,2-dioxaphosphorinan-2-yl]-2′-C-beta-methyl-adenosine]",–
75 to 78 °C,"C[C@@]1(O)[C@H](O)[C@@H](COP2(=O)OCC[C@@H](c3cc(F)ccc3F)O2)O[C@H]1n1cnc2c(N)ncnc21 (stereo partly drawn) [Compound 21.3, cis-5′-O-[4-(2,5difluorophenyl)-2-oxo-1,3,2-dioxaphosphorinan-2-yl]-2′-C-beta-methyl-adenosine]",–
120 to 123 °C,"C[C@@]1(O)[C@H](O)[C@@H](COP2(=O)OCC[C@@H](c3cc(F)cc(F)c3)O2)O[C@H]1n1cnc2c(N)ncnc21 (stereo partly drawn) [Compound 21.4, cis-5′-O-[4-(3,5-difluorophenyl)-2-oxo-1,3,2-dioxaphosphorinan-2-yl]-2′-C-beta-methyl-adenosine]",–
108 to 110 °C,"C[C@@]1(O)[C@H](O)[C@@H](COP2(=O)OCC[C@@H](c3cccc(Br)c3)O2)O[C@H]1n1cnc2c(N)ncnc21 (stereo partly drawn) [Compound 21.6, cis-5′-O-[4-(3-bromophenyl)-2-oxo-1,3,2-dioxaphosphorinan-2-yl]-2′-C-beta-methyl adenosine]",–
137 to 140 °C,"C[C@@]1(O)[C@H](O)[C@@H](COP2(=O)OCC[C@@H](c3cccnc3)O2)O[C@H]1n1cnc2c(N)ncnc21 (stereo partly drawn) [Compound 21.9, cis-5′-O-[4-(pyridine-3-yl)-2-oxo-1,3,2-dioxaphosphorinan-2-yl]-2′-C-beta-methyl-adenosine]",–
90 to 93 °C,"CC(=O)O[C@@H]1[C@@H](COP2(=O)OCC[C@H](c3cccc(Cl)c3)O2)O[C@@H](n2ccc3c(N)ncnc32)[C@]1(C)O (stereo partly drawn) [Compound 22.2, 4-amino-7-(3′-acetyl-cis-5′-O-[4-(S)-(3-chlorophenyl)-2-oxo-1,3,2-dioxaphosphorinan-2-yl]-2′-C-methyl-beta-D-ribofuranosyl)-7H-pyrrolo[2,3-d]pyrimidine]",–
127 to 130 °C,"C[C@@]12OC(=O)O[C@@H]1[C@@H](COP1(=O)OCC[C@H](c3cccc(Cl)c3)O1)O[C@H]2n1ccc2c(N)ncnc21 (stereo partly drawn) [Compound 23.1, 4-amino-7-(2′,3′-carbonyl-cis-5′-O-[4-(S)-(3-chlorophenyl)-2-oxo-4,3,2-dioxaphosphorinan-2-yl]-2′-C-methyl-beta-D-ribofuranosyl)-7H-pyrrolo[2,3-d]pyrimidine]",–
